In ChEMBL document CHEMBL4020733, “Approaches towards the development of chimeric DPP4/ACE inhibitors for treating metabolic syndrome” (Bioorg Med Chem Lett, 2017):

How the values were obtained:
[1] = target: Dipeptidyl peptidase 4 (Homo sapiens, UniProt P27487); assay: Inhibition of human plasma DPP4
[2] = Plasma protein binding in human; format: ADME, cell-free; conditions: read-out: PPB (converted)
[3] = Plasma protein binding in mouse; format: ADME, cell-free; conditions: read-out: PPB (converted)
[4] = Plasma protein binding in rat; format: ADME, cell-free; conditions: read-out: PPB (converted)
[5] = Inhibition of APP (unknown origin); parameters: species or system Homo sapiens
[6] = target: Angiotensin-converting enzyme (Homo sapiens, UniProt P12821); assay: Inhibition of human plasma ACE
Chain of Angiotensin-converting enzyme (P12821 whole entry): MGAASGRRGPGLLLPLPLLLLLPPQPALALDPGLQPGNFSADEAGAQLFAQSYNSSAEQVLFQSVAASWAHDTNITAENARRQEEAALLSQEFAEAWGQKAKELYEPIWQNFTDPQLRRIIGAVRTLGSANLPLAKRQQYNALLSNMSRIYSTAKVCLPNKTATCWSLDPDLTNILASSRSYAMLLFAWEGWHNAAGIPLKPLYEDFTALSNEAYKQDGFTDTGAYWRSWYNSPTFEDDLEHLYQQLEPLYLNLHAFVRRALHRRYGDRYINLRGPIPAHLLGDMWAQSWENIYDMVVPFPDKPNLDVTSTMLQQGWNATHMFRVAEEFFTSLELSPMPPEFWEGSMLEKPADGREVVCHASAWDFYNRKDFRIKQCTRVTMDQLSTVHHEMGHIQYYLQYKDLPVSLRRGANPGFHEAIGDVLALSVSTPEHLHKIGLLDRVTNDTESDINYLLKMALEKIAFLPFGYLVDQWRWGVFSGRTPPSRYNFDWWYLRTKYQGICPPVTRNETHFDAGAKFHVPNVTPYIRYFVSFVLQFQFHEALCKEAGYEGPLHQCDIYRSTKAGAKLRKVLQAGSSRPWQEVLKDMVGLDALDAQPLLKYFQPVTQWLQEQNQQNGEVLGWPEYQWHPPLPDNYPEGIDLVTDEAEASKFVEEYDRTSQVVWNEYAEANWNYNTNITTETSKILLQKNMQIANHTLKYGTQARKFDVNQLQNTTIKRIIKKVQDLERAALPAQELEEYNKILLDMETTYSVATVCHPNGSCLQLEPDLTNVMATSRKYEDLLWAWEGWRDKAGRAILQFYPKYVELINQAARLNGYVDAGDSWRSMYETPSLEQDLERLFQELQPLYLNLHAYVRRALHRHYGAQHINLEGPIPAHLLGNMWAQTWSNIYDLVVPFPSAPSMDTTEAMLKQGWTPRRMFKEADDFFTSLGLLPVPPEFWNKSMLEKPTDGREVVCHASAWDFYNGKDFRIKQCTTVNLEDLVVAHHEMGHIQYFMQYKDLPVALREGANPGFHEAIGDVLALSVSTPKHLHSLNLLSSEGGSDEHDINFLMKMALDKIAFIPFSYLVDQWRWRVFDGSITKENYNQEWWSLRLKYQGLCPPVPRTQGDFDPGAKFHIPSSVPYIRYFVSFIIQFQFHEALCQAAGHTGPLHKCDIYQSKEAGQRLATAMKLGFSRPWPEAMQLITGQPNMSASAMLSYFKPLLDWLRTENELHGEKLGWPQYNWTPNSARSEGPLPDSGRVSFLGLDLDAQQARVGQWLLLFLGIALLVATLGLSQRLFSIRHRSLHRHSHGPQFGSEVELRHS

[7] = target: Neprilysin (Homo sapiens, UniProt P08473); assay: Inhibition of NEP (unknown origin)
Chain of Neprilysin (P08473 whole entry): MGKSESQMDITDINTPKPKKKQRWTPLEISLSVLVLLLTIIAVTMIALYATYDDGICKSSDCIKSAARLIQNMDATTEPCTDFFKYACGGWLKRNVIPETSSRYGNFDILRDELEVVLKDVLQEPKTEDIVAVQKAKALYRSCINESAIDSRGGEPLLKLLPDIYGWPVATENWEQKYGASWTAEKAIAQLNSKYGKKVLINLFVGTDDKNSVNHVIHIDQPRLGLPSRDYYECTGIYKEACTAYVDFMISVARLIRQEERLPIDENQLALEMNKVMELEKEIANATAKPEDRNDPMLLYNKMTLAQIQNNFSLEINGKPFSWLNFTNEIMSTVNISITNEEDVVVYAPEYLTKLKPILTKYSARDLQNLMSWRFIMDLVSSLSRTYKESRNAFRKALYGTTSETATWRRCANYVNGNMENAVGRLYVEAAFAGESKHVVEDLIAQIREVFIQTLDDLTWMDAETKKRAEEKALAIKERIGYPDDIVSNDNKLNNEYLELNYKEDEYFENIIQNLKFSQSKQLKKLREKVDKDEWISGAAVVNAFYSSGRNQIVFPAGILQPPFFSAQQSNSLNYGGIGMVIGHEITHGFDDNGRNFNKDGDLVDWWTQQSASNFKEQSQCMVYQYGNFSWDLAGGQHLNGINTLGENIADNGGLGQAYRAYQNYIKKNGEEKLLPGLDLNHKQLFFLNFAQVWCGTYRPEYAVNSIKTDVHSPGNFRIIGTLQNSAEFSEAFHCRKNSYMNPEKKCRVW

[8] = target: Aminopeptidase N (Homo sapiens, UniProt P15144); assay: Inhibition of APN (unknown origin)
Chain of Aminopeptidase N (P15144 whole entry): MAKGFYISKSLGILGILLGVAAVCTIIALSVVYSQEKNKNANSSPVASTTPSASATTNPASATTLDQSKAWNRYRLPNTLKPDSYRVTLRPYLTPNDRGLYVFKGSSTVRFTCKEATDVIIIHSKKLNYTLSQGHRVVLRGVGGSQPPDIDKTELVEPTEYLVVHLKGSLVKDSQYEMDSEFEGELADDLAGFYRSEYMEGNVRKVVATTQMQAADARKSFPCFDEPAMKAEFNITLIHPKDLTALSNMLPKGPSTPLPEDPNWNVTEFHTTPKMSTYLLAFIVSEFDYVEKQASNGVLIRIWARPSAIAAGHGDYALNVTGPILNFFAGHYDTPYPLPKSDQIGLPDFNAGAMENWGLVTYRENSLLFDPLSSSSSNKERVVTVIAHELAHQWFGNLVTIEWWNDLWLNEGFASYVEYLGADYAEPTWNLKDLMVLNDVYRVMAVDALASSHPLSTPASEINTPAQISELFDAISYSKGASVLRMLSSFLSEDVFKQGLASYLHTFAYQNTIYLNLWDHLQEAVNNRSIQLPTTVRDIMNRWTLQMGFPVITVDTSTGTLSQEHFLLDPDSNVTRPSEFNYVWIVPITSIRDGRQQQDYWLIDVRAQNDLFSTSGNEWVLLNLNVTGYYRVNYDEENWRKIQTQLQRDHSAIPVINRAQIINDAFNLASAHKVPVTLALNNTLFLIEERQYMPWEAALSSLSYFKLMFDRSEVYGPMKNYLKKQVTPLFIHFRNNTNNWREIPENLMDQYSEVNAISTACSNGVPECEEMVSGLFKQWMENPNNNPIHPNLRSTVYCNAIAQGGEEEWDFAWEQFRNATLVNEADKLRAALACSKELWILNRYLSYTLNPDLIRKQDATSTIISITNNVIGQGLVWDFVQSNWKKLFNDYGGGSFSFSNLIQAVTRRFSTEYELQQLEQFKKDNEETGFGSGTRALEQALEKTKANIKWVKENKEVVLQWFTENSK

Chain of Dipeptidyl peptidase 4 (P27487 whole entry): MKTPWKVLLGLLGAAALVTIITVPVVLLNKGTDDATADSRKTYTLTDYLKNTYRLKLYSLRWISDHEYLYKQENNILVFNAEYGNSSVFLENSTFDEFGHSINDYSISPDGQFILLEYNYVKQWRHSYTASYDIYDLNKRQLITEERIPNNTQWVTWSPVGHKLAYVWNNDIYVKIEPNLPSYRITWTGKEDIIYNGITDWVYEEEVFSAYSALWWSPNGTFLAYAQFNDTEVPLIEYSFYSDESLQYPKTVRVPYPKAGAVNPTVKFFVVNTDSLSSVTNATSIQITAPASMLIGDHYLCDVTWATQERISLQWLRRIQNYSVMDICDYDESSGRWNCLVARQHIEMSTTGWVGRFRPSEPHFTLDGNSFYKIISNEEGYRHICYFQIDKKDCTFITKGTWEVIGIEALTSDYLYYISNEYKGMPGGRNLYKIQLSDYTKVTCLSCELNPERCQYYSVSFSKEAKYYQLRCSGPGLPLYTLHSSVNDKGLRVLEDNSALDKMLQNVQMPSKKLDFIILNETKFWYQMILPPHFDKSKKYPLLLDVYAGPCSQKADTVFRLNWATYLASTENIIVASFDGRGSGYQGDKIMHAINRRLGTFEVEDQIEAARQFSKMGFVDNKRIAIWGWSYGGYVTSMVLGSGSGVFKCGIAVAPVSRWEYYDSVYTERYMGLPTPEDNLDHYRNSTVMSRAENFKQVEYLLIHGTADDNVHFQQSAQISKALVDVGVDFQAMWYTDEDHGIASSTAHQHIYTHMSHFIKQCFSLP

| IC50 [5] | IC50 [6] | IC50 [7] | IC50 [8] | SMILES | IC50 [1] | fraction unbound [2] | fraction unbound [3] | fraction unbound [4] |
| --- | --- | --- | --- | --- | --- | --- | --- | --- |
| – | – | – | – | C[C@H](N[C@@H](CCc1ccccc1)C(=O)O)C(=O)N1CCC[C@H]1C(=O)O [ENALAPRILAT ANHYDROUS] | > 100 µM | 0.341 | 0.424 | 0.456 |
| > 100 µM | 11 µM | > 100 µM | > 100 µM | N[C@@H](CC(=O)N1CCn2c(nnc2C(F)(F)F)C1)Cc1cc(F)c(F)cc1F [SITAGLIPTIN] | – | 0.53 | 0.707 | 0.587 |
